Data published in patent publication US9062057B2, “CCR5 antagonists for treating HIV” (Purdue Research Foundation, priority 2010, dated 2015).

Biological target: CCR5 chemokine receptor (Homo sapiens, UniProt P51681)
Test: Inhibition Data (IC50; no method described)
Conditions: assay not described, read-out: Activity (*) (IC50 class)

Chain of CCR5 chemokine receptor (P51681 whole entry): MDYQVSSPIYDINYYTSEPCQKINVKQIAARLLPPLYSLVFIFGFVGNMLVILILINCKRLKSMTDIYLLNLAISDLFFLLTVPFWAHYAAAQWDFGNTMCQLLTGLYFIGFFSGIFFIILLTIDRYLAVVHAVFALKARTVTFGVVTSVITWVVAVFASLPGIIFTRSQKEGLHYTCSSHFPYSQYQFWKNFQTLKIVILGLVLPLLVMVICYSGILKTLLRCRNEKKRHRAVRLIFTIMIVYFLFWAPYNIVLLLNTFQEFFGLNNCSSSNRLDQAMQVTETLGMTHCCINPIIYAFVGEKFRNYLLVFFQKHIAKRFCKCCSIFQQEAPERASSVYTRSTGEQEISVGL

CN(C[C@@](C)(CCNC1C2CCC1CN(C(=O)OC(C)(C)C)C2)c1ccccc1)S(=O)(=O)c1ccccc1 (stereo partly shown) [Example 66]
IC50: < 1 µM
